System: L1210
Test: In vitro cytotoxic activity against L1210 murine leukemia cells
Format: functional, cell-based
Details: Mus musculus

SMILES | IC50
CCOC(CCN1C(=O)c2cc3c(c4c2c1cc1c(OC)c(OC(C)C)c(OC)cc14)OCO3)OCC | 16.3 µM
COc1cc2cc3c4c(cccc4c2c(OC)c1O)C(=O)N3CCCCN(C)C | 1.8 µM
COc1ccc(CN2C(=O)c3cc(OC)cc4c3c2cc2cc(OC)ccc24)cc1 | 66.6 µM
COc1ccc(CN2C(=O)c3cc(O)cc4c3c2cc2cc(OC)c(O)c(OC)c24)cc1 | 2.6 µM
COc1cc2c3c(cc4cc(OC)c(O)c(OC)c4c3c1)N(CCCN(C)C)C2=O | 5.4 µM
COc1ccc(CN2C(=O)c3cc(OCc4ccccc4)cc4c3c2cc2cc(OC)c(OCc3ccccc3)c(OC)c24)cc1 | > 100 µM
COc1cc2c(cc3c4c(cc5c(c42)OCO5)C(=O)N3CCCN(C)C)c(OC)c1OC(C)C | 4.3 µM
COc1cc2cc3c4c(cccc4c2c(OC)c1OCc1ccccc1)C(=O)N3CCCC=O | 17.6 µM
COc1ccc2cc3c4c(cc(OC)cc4c2c1)C(=O)N3CCC=O | 5.2 µM
COc1cc2c3c(cc4cc(OC)c(O)c(OC)c4c3c1)N(C)C2=O | 1.6 µM
COc1cc2c3c(cc4cc(OC)c(OCc5ccccc5)c(OC)c4c3c1)N(CCC=O)C2=O | 4.7 µM
CN1C(=O)c2ccc(OCc3ccccc3)c3c2c1cc1cc(OCc2ccccc2)ccc13 | 79.2 µM
COc1cc2c3c(cc4cc(OC)c(OCc5ccccc5)c(OC)c4c3c1)N(C)C2=O | > 10 µM
COc1cc2c3c(cc4ccc(O)cc4c3c1)N(CCCN(C)C)C2=O | 1.6 µM
CCOC(CCCN1C(=O)c2cccc3c2c1cc1cc(OC)c(OCc2ccccc2)c(OC)c13)OCC | 21.2 µM
COc1cc2cc3c4c(cccc4c2c(OC)c1OCc1ccccc1)C(=O)N3CCCCN(C)C | 10.8 µM
CCN(CC)CCN1C(=O)c2cc(OC)cc3c2c1cc1cc(OC)c(O)c(OC)c13 | 2.3 µM
COc1cc2c(cc3c4c(cc5c(c42)OCO5)C(=O)N3CCC=O)c(OC)c1OC(C)C | 7.8 µM
COc1ccc(CN2C(=O)c3cc(OC)cc4c3c2cc2cc(OC)c(OC)c(OC)c24)cc1 | > 10 µM
CCOC(CCN1C(=O)c2cc(OC)cc3c2c1cc1ccc(OC)cc13)OCC | > 10 µM

— ChEMBL document CHEMBL1135005, “Synthesis and biological evaluation of aristolactams” (Bioorg Med Chem Lett, 2002)
